Starred links: 1 amine or outer side, 2 acyl side, 3 side chain; linkers in the order of their positions; H or OH if unused. Non-standard residues stand in square brackets, D forms with d. Residues, ends and D or L forms follow the SMILES beside them. ξ: configuration not given here. *: point of attachment. dBip = N[C@H](Cc1ccc(-c2ccccc2)cc1)C(=O)O; Phe(4-Cl) = N[C@@H](Cc1ccc(Cl)cc1)C(=O)O; γGlu = O=C(O)[C@H](CCC(=O)[*:2])N[*:1]; 2Nal = N[C@@H](Cc1ccc2ccccc2c1)C(=O)O; NMeR = CN[C@@H](CCCNC(=N)N)C(=O)O; Tridecanoyl = CCCCCCCCCCCCC(=O)*; hArg = N=C(N)NCCCC[C@H](N)C(=O)O; Cha = N[C@@H](CC1CCCCC1)C(=O)O; αMeL = CC(C)C[C@](C)(N)C(=O)O; Pip = O=C(O)[C@@H]1CCCCN1; Nle = CCCC[C@H](N)C(=O)O; ξαMeP = CC1(C(=O)O)CCCN1; ξβ3hV = CC(C)C(N)CC(=O)O; AEEA = NCCOCCOCC(=O)O
How the values were obtained:
[1] = In vitro stability in rat liver homogenate; assay type: in vitro ADME; settings: tissue homogenate
Experimental: (§1) Apelin peptides were spiked into rat plasma, liver homogenate, and kidney homogenate, which were obtained from commercial sources, to a final concentration of 5 μM. The samples were then incubated at 37° C. over a period of 4 hr. […] In a typical experiment, an aliquot of 100 μL of sample was taken from the incubation vial, followed by addition of 300 μL of MeOH containing internal standard. The quenched sample was centrifuged at 5500 g for 15 min after 15 min vortex in room temperature. The supernatant was then analyzed by high resolution LC-MS. […] In vitro plasma, […], and kidney stability results are shown below in Table 14.

[2] = In vitro stability in rat plasma; assay type: in vitro ADME
Experimental: as §1

Row | remaining at 4 h, 5 μM [1] | remaining at 4 h, 5 μM [2] | Compound
1 | < 1% | 62% | CCCCCCCCCCCCC(=O)N[C@@H](CCC(=O)NCCOCCOCC(=O)NCCOCCOCC(=O)N[C@@H](CCC(N)=O)C(=O)N[C@@H](CCCNC(=N)N)C(=O)N1CCC[C@@]1(C)C(=O)N[C@@H](CCCCNC(=N)N)C(=O)N[C@@](C)(CC(C)C)C(=O)N[C@@H](CO)C(=O)N[C@@H](Cc1c[nH]cn1)C(=O)N[C@@H](CCCCN)C(=O)NCC(=O)N1CCC[C@H]1C(=O)N[C@@H](CCCC)C(=O)N1CCC[C@H]1C(=O)N[C@@H](Cc1ccc(Cl)cc1)C(=O)O)C(=O)O [compound 482]
2 | < 1% | 37% | CCCCCCCCCCCCC(=O)N[C@@H](CCC(=O)NCCOCCOCC(=O)NCCOCCOCC(=O)N[C@@H](CCC(N)=O)C(=O)N[C@@H](CCCNC(=N)N)C(=O)N1CCC[C@H]1C(=O)N(C)[C@@H](CCCNC(=N)N)C(=O)N[C@H](CC(=O)N[C@@H](CO)C(=O)N[C@@H](Cc1c[nH]cn1)C(=O)N[C@@H](CCCCN)C(=O)NCC(=O)N1CCC[C@H]1C(=O)N[C@@H](CCCC)C(=O)N1CCC[C@H]1C(=O)N[C@@H](Cc1ccc(Cl)cc1)C(=O)O)CC(C)C)C(=O)O [compound 422]
3 | < 1% | < 1% | CCCC[C@H](NC(=O)[C@@H]1CCCN1C(=O)CNC(=O)[C@H](CCCCN)NC(=O)[C@H](Cc1c[nH]cn1)NC(=O)[C@H](CO)NC(=O)[C@H](CC(C)C)NC(=O)[C@H](CCCNC(=N)N)N(C)C(=O)[C@@H]1CCCN1C(=O)[C@H](CCCNC(=N)N)NC(=O)[C@H](CCC(N)=O)NC(=O)COCCOCCNC(=O)COCCOCCNC(=O)CC[C@H](NC(=O)CCCCCCC(=O)O)C(=O)O)C(=O)N1CCC[C@H]1C(=O)N[C@@H](Cc1ccc(Cl)cc1)C(=O)O [compound 508]
4 | < 1% | > 90% | CCCCCCCCCCCCC(=O)N[C@@H](CCC(=O)NCCOCCOCC(=O)NCCOCCOCC(=O)N[C@H](CCC(N)=O)C(=O)N[C@@H](CCCNC(=N)N)C(=O)N1CCCC1(C)C(=O)N[C@@H](CCCCNC(=N)N)C(=O)NC(CC(=O)N[C@@H](CO)C(=O)N[C@@H](Cc1c[nH]cn1)C(=O)N[C@@H](CCCCN)C(=O)NCC(=O)N1CCCC[C@H]1C(=O)N[C@@H](CCCC)C(=O)N[C@@H](Cc1ccc(Cl)cc1)C(=O)O)C(C)C)C(=O)O (stereo partly drawn) [compound 501] ({Tridecanoyl-γGlu-AEEA-AEEA}-[dQ]R[ξαMeP][hArg][ξβ3hV]SHKG[Pip][Nle][Phe(4-Cl)]-OH)
5 | < 1% | 40% | CCCCCCCCCCCCC(=O)N[C@@H](CCC(=O)NCCOCCOCC(=O)NCCOCCOCC(=O)N[C@@H](CCC(N)=O)C(=O)N[C@@H](CCCNC(=N)N)C(=O)N[C@@H](CCC(=O)O)C(=O)N(C)[C@@H](CCCNC(=N)N)C(=O)N[C@@H](CC(C)C)C(=O)N[C@@H](CO)C(=O)N[C@@H](Cc1c[nH]cn1)C(=O)N[C@@H](CCCCN)C(=O)NCC(=O)N1CCC[C@H]1C(=O)N[C@@H](CCCC)C(=O)N1CCC[C@H]1C(=O)N[C@@H](Cc1ccc(Cl)cc1)C(=O)O)C(=O)O [compound 476]
6 | < 1% | 79% | CCCCCCCCCCCCC(=O)N[C@@H](CCC(=O)NCCOCCOCC(=O)NCCOCCOCC(=O)N[C@@H](CCC(N)=O)C(=O)N(C)[C@@H](CCCCNC(=N)N)C(=O)N1CCC[C@H]1C(=O)N(C)[C@@H](CCCNC(=N)N)C(=O)N[C@@](C)(CC(C)C)C(=O)N[C@@H](CO)C(=O)N[C@@H](Cc1c[nH]cn1)C(=O)N[C@@H](CCCCN)C(=O)NCC(=O)N1CCC[C@H]1C(=O)N[C@@H](CCCC)C(=O)N1CCC[C@H]1C(=O)N[C@@H](Cc1ccc(Cl)cc1)C(=O)O)C(=O)O [compound 484]
7 | < 1% | 6.3% | CCCC[C@H](NC(=O)[C@@H]1CCCN1C(=O)CNC(=O)[C@H](CCCCN)NC(=O)[C@H](Cc1c[nH]cn1)NC(=O)[C@H](CO)NC(=O)[C@H](CC(C)C)NC(=O)[C@H](CCCNC(=N)N)NC(=O)[C@@H]1CCCN1C(=O)[C@H](CCCNC(=N)N)NC(=O)[C@H](CCC(N)=O)NC(=O)[C@H](CCCNC(=N)N)NC(C)=O)C(=O)N1CCC[C@H]1C(=O)N[C@H](Cc1ccc(-c2ccccc2)cc1)C(=O)O [compound 62] (Ac-RQRPRLSHKGP[Nle]P[dBip]-OH)
8 | 0% | 56% | CCCCCCCCCCCCC(=O)N[C@@H](CCC(=O)NCCOCCOCC(=O)NCCOCCOCC(=O)N[C@@H](CCC(N)=O)C(=O)N[C@@H](CCCCNC(=N)N)C(=O)N1CCC[C@H]1C(=O)N[C@@H](CCCCNC(=N)N)C(=O)N[C@@H](CC(C)C)C(=O)N[C@@H](CO)C(=O)N[C@@H](Cc1c[nH]cn1)C(=O)N[C@@H](CCCCN)C(=O)NCC(=O)N1CCC[C@H]1C(=O)N[C@@H](CCCC)C(=O)N1CCC[C@H]1C(=O)N[C@@H](Cc1ccc(Cl)cc1)C(=O)O)C(=O)O [compound 357]
9 | < 1% | 82% | CCCCCCCCCCCCC(=O)N[C@@H](CCC(=O)NCCOCCOCC(=O)NCCOCCOCC(=O)N[C@@H](CCC(N)=O)C(=O)N[C@@H](CCCCNC(=N)N)C(=O)N1CCC[C@H]1C(=O)N(C)[C@@H](CCCNC(=N)N)C(=O)N[C@@](C)(CC(C)C)C(=O)N[C@@H](CO)C(=O)N[C@@H](Cc1c[nH]cn1)C(=O)N[C@@H](CCCCN)C(=O)NCC(=O)N1CCC[C@H]1C(=O)N[C@@H](CCCC)C(=O)N1CCC[C@H]1C(=O)N[C@@H](Cc1ccc2ccccc2c1)C(=O)O)C(=O)O [compound 473] ({Tridecanoyl-γGlu-AEEA-AEEA}-Q[hArg]P[NMeR][αMeL]SHKGP[Nle]P[2Nal]-OH)
10 | < 1% | > 90% | CCCCCCCCCCCCC(=O)N[C@@H](CCC(=O)NCCOCCOCC(=O)NCCOCCOCC(=O)N[C@H](CCC(N)=O)C(=O)N[C@@H](CCCNC(=N)N)C(=O)N1CCC[C@H]1C(=O)N(C)[C@@H](CCCNC(=N)N)C(=O)N[C@@](C)(CC(C)C)C(=O)N[C@@H](CO)C(=O)N[C@@H](Cc1c[nH]cn1)C(=O)N[C@@H](CCCCN)C(=O)NCC(=O)N1CCCC[C@H]1C(=O)N[C@@H](CCCC)C(=O)N1CCC[C@@]1(C)C(=O)N[C@@H](Cc1ccc(Cl)cc1)C(=O)O)C(=O)O [compound 555]
11 | < 1% | 75% | CCCCCCCCCCCCCCC(=O)N[C@@H](CCC(=O)NCCOCCOCC(=O)NCCOCCOCC(=O)N[C@@H](CCC(N)=O)C(=O)N[C@@H](CCCNC(=N)N)C(=O)N1CCC[C@H]1C(=O)N(C)[C@@H](CCCNC(=N)N)C(=O)N[C@@H](CC(C)C)C(=O)N[C@@H](CO)C(=O)N[C@@H](Cc1c[nH]cn1)C(=O)N[C@@H](CCCCN)C(=O)NCC(=O)N1CCC[C@H]1C(=O)N[C@@H](CCCC)C(=O)N1CCC[C@H]1C(=O)N[C@@H](Cc1ccc(Cl)cc1)C(=O)O)C(=O)O [compound 495]
12 | < 1% | 25% | CCCCCCCCCCCCC(=O)N[C@@H](CCC(=O)NCCOCCOCC(=O)NCCOCCOCC(=O)N[C@@H](CCC(N)=O)C(=O)N[C@H](CCCNC(=N)N)C(=O)N1CCC[C@H]1C(=O)N(C)[C@@H](CCCCNC(=N)N)C(=O)NC(CC(=O)N[C@@H](CO)C(=O)N[C@@H](Cc1c[nH]cn1)C(=O)N[C@@H](CCCCN)C(=O)NCC(=O)N1CCC[C@H]1C(=O)N[C@@H](CCCC)C(=O)N1CCC[C@H]1C(=O)N[C@@H](Cc1ccc(Cl)cc1)C(=O)O)C(C)C)C(=O)O (stereo partly shown) [compound 384]
13 | < 1% | 36% | CCCCCCCCCCCCC(=O)N[C@@H](CCC(=O)NCCOCCOCC(=O)NCCOCCOCC(=O)N[C@@H](CCC(N)=O)C(=O)N[C@@H](CCCNC(=N)N)C(=O)N1CCC[C@H]1C(=O)N(C)[C@@H](CCCNC(=N)N)C(=O)N[C@@H](CC(C)C)C(=O)N[C@@H](CO)C(=O)N[C@H](CN[C@@H](CCCCN)C(=O)NCC(=O)N1CCC[C@H]1C(=O)N[C@@H](CCCC)C(=O)N1CCC[C@H]1C(=O)N[C@@H](Cc1ccc(Cl)cc1)C(=O)O)Cc1c[nH]cn1)C(=O)O [compound 469]
14 | < 1% | 37% | CCCCCCCCCCCCC(=O)N[C@@H](CCC(=O)NCCOCCOCC(=O)NCCOCCOCC(=O)N[C@@H](CCC(N)=O)C(=O)N[C@@H](CCCCNC(=N)N)C(=O)N1CCC[C@H]1C(=O)N(C)[C@@H](CCCCNC(=N)N)C(=O)N[C@@H](CC(C)C)C(=O)N[C@@H](CO)C(=O)N[C@@H](Cc1c[nH]cn1)C(=O)N[C@@H](CCCCN)C(=O)NCC(=O)N1CCC[C@H]1C(=O)N[C@@H](CCCC)C(=O)N1CCC[C@H]1C(=O)N[C@@H](Cc1ccc(Cl)cc1)C(=O)O)C(=O)O [compound 483]
15 | < 1% | 33% | CCCCCCCCCCCCC(=O)N[C@@H](CCC(=O)NCCOCCOCC(=O)NCCOCCOCC(=O)N[C@@H](CCC(N)=O)C(=O)N[C@@H](CCCNC(=N)N)C(=O)N1CCC[C@H]1C(=O)N(C)[C@@H](CCCNC(=N)N)C(=O)N[C@@H](CC(C)C)C(=O)N[C@@H](CO)C(=O)N[C@@H](Cc1c[nH]cn1)C(=O)N[C@@H](CCCCN)C(=O)NCC(=O)N1CCC[C@H]1C(=O)N[C@@H](CCCC)C(=O)N1CCC[C@H]1CC(=O)N[C@@H](Cc1ccc(Cl)cc1)C(=O)O)C(=O)O [compound 426]
16 | – | 2.4% | CCCC[C@H](NC(=O)[C@@H]1CCCN1C(=O)CNC(=O)[C@H](CCCCN)NC(=O)[C@H](Cc1c[nH]cn1)NC(=O)[C@H](CO)NC(=O)[C@H](CC1CCCCC1)NC(=O)[C@H](CCCNC(=N)N)N(C)C(=O)[C@@H]1CCCN1C(=O)[C@H](CCCNC(=N)N)NC(=O)[C@H](CCC(N)=O)NC(=O)[C@H](CCCNC(=N)N)NC(C)=O)C(=O)N1CCC[C@H]1C(=O)N[C@@H](Cc1ccc(Cl)cc1)C(=O)O [compound 66] (Ac-RQRP[NMeR][Cha]SHKGP[Nle]P[Phe(4-Cl)]-OH)
